Data set [1] deals with Vitis vinifera var. Gamay rouge cells. Put plainly: Elicitation of t-resveratrol production in grapevine cell suspension, Gamay rouge. The format is cell-based. Conditions: cyclodextrin 50 mmol/liter in medium (BETA 15 mmol/liter); 96 hours of incubation; occasional presence of other unidentified phenolic products. As to the method: Vitis vinifera var. Gamay rouge: A grapevine cell line established by J. C. Pech in 1978 (ENSAT, Toulouse, France) from immature fruits of grapevine from the cultivar Gamay Fréaux has been used. The calluses were kept in 250 ml flasks containing 80 ml of Gamborg B5 basal medium (Gamborg et al. 1968. Experimental Cell Research 50:151-158) supplemented with Morel vitamins (Morel, G. 1970. “Le probléme de la transformation tumorale chez les végétaux”. Physiologie Végétale, 8:189-204), casein hydrolysate (0.25 g/l), saccharose (20 g/l) as carbonated source, and α-nafthalenacetic acid (0.1 mg/l) and kinetin (0.2 mg/l) as hormones (hereinafter, medium). This medium is adjusted to pH 6 and sterilized by applying humid heat (autoclave) for 20 min at a pressure of 121.2 kPa (1.2 athm), acquiring a solid consistency by the addition of purified agar (8 g/l) when the medium is cooled. Cell suspensions were started, from friable calluses obtained in the above described medium, in 250 ml flasks containing 80 ml of agar-free medium. The cells in liquid medium were kept in an orbital shaker at 100 rpm and 25° C., under a photoperiod of 14 hours of light (6 W/m^2) and 10 h in the dark.
(§1) For each elicitation experience, 4 g of fresh weight of cells previously washed with fresh medium and filtered were taken under sterile conditions. These cells were transferred to 50 ml flasks and replaced by the addition of 10 ml of sterile fresh medium supplemented in each case with the cyclodextrins stated below:
(§2) The flasks were incubated under the same conditions as described above for time periods ranging from 24 and 96 hours.
(§3) Once the incubation time had been completed, the cells were separated from the medium by filtration by making a slight vacuum with the help of a water pump, and the cells and the filtrate were separately collected.
(§4) For this, an aliquot of the filtrate was diluted in fresh medium, filtered through a 0.2 μm Anopore filter, and 20 μl of filtrate were injected in a LiChrospher 100 RP-18 column (250×4 mm, particle size 5 μm). Two types of solvents were used as mobile phase: solvent A, 0.05% trifluoroacetic acid in water, and solvent B, 0.05% trifluoroacetic acid in methanol:acetonitrile 60:40 vol/vol. The sample is eluted at a flow rate of 1 ml/min of the following solvent mixture: 0 min, 10% B; 5 min, 15% B; 40 min, 35% B; 45 min, 65% B; 50 min, 65% B; 55 min, 10% B; and at a column temperature of 35° C. (Dalluge et al., 1998. J. Chromatogr. A 793:265-274). […] Gamay corresponding to the start of incubation and to 96 hours of incubation in a culture medium containing RAMEB.
For routine analysis of t-resveratrol, an aliquot of the filtrate was diluted with fresh medium and its ultraviolet absorption spectrum was recorded using a Kontron Uvikon 940 spectrophotometer taking as reference the fresh medium. The concentration of t-resveratrol in the supernatant was estimated using a molar extinction coefficient at 306 nm of 26,800 M^−1 cm^−1 (Siemann, E. H. and Creasy, L. L. 1992, “Concentration of the phytoalexin resveratrol in wine”, Am. J. Enol. Vitic. 43:49-52). […] Gamay corresponding to the start of incubation and to 96 hours of incubation in a culture medium containing RAMEB.
The results obtained, expressed as mg of t-resveratrol per litre of filtrate, eliciting the cells with different cyclodextrins at concentrations of 50 mmol/litre of culture medium (except for BETA, for which the concentration corresponds to 15 mmol/litre due to its lower solubility), after 96 hours of incubation are given in Table 1.

Data set [2] relates to Vitis vinifera var. Monastrell albino line cells. Put plainly: Elicitation of t-resveratrol production in grapevine cell suspension, Monastrell albino. The format is cell-based. The following applies: cyclodextrin 50 mmol/liter in medium (BETA 15 mmol/liter); 96 hours of incubation; kept in the dark. As to the method: (§5) Vitis vinifera var. Monastrell: Two grapevine cell lines of cultivar Monastrell, one established in the dark (albino line) and another established in the presence of white light (green line) from immature fruits have been used. All manipulations and incubations for the green line were carried out in lighting conditions, but for the albino line, incubations for callus generation, development, and growth, as well as incubations of cell suspensions, were performed in the dark. For this, immature grapes approximately 5 mm in diameter were superficially sterilized by immersion in a 7% calcium hypochlorite solution for 15 minutes. After this time, and always under sterile conditions, grapes were washed 3 times with sterile bidistilled water, their seeds removed, and were divided into 4 portions. These portions (explants) were deposited until microcalluses appeared in a Petri dish containing a solid culture medium based on the medium reported by Murashige and Skoog (Murashige, T and Skoog, F. 1962. “A revised medium for rapid growth and bioassays with tobacco tissue cultures”. Physiologia Plantarum 15:473-497), supplemented with Morel vitamins, casein hydrolysate (0.25 g/l), saccharose (30 g/l) as carbonated source, and α-nafthalenacetic acid (0.1 mg/l) and kinetin (0.2 mg/l) as hormones, 8 g/l of purified agar, and adjusted to pH 6. Finally, these microcalluses were transferred to 250 ml flasks containing 80 ml of this same solid culture medium for callus development. Cell suspensions were started, from friable calluses, in 250 ml flasks containing 80 ml of Gamborg B5 basal medium, supplemented with Morel vitamins, casein hydrolysate (0.25 g/l), saccharose (20 g/l) as carbonated source, and α-nafthalenacetic acid (0.1 mg/l) and kinetin (0.2 mg/l) as hormones, in the absence of agar. The cells in liquid medium were kept in an orbital shaker at 100 rpm and 25° C.; the green line was submitted to a photoperiod of 14 hours of light (6 W/m^2) and 10 h in the dark, whereas the albino line was kept in the dark at all times.
as §1, §2, §3, §4
(§6) For routine analysis of t-resveratrol, an aliquot of the filtrate was diluted with fresh medium and its ultraviolet absorption spectrum was recorded using a Kontron Uvikon 940 spectrophotometer taking as reference the fresh medium. The concentration of t-resveratrol in the supernatant was estimated using a molar extinction coefficient at 306 nm of 26,800 M^−1 cm^−1 (Siemann, E. H. and Creasy, L. L. 1992, “Concentration of the phytoalexin resveratrol in wine”, Am. J. Enol. Vitic. 43:49-52). […]

Data set [3] has as its system Vitis vinifera var. Monastrell green line cells. Put plainly: Elicitation of t-resveratrol production in grapevine cell suspension, Monastrell green. The format is cell-based. Conditions: cyclodextrin 50 mmol/liter in medium (BETA 15 mmol/liter); 96 hours of incubation; heavy presence of cis-resveratrol. The procedure: as §5, §1, §2, §3, §4, §6
Data set [4] concerns grapevine cells in suspension. Description: Effect of cyclodextrins on grapevine cells in suspension (overall comparison, toxicity). Conditions: for Capacity to induce the synthesis of t-resveratrol compared with the other cyclodextrins tested: grapevine cells in suspension, 96 hours. It counts as cell-based, Vitis vinifera. As to the method:
as §1, §2
It is also noted that the intensity of the effect depends on the variety and the cell line (greater production is seen in the albino Monastrell variety than in the green Monastrell variety).

Data set [5] concerns grapevine cell suspensions (Vitis vinifera var. Gamay). Conditions: cited from earlier work.
Data set [6] in a line: Solubility of t-resveratrol in an aqueous medium. It counts as physicochemical. Conditions: 25° C., 5 days in the dark. The procedure:
Five millilitres of a 11,410 mg/l solution of t-resveratrol (99% pure according to the supplier; Sigma, Madrid) in ethanol were placed in an spherical bottle, and ethanol was evaporated to dryness with a N2 current. Residual ethanol was eliminated by keeping the bottle under low pressure overnight. Five millilitres of aqueous medium were added to the solid residue, and the bottle was tightly closed and kept under shaking at 25° C. for 5 days in the dark. The resulting suspension was filtered through 0.2 μm Anopore filters, and the concentration of t-resveratrol in the filtrate was analyzed by UV spectroscopy.
The concentration of t-resveratrol in the filtrates, expressed as mg oft-resveratrol per litre of filtrate, is given in Table 2.

Data set [7] relates to crypt formation in aberrant colon. Conditions: rat model treated with a carcinogenic agent (azoxymethane); cited from earlier work.

As for “Randomly methylated β-cyclodextrin [RAMEB]”, in data set [1], the “Trans-Resveratrol (mg/l) in filtrate, Gamay Rouge” value (“Trans-Resveratrol … Gamay Rouge” below) was 3320 mg/L. The “Trans-Resveratrol (mg/l) in filtrate, Monastrell albino” value (shortened to “Trans-Resveratrol … Monastrell albino”) in data set [2] turned out to be 5027 mg/L. In addition, in data set [3], the “Trans-Resveratrol (mg/l) in filtrate, Monastrell green” value (shortened to “Trans-Resveratrol … Monastrell green”) amounted to 101 mg/L. Further, the “Capacity to induce the synthesis of t-resveratrol compared with the other cyclodextrins tested” value in data set [4] was “greater capacity to induce the synthesis of t-resveratrol”.
As to `COC[C@H]1O[C@@H]2O[C@H]3[C@H](O)[C@@H](OC)[C@@H](O[C@H]4[C@H](O)[C@@H](OC)[C@@H](O[C@H]5[C@H](O)[C@@H](OC)[C@@H](O[C@H]6[C@H](O)[C@@H](OC)[C@@H](O[C@H]7[C@H](O)[C@@H](OC)[C@@H](O[C@H]8[C@H](O)[C@@H](OC)[C@@H](O[C@H]1[C@H](O)[C@H]2OC)O[C@@H]8COC)O[C@@H]7COC)O[C@@H]6COC)O[C@@H]5COC)O[C@@H]4COC)O[C@@H]3COC` [DIMEB, Heptakis (2,6-di-O-methyl)-β-cyclodextrin], the “Trans-Resveratrol … Gamay Rouge” value in data set [1] was 3060 mg/L. The “Trans-Resveratrol … Monastrell albino” value in data set [2] came to 4680 mg/L. The “Trans-Resveratrol … Monastrell green” value in data set [3] was 90 mg/L. Moreover, the “Ability to induce synthesis of t-resveratrol excreted into the culture medium” value in data set [5] is recorded as “induce”.
Take “(2-hydroxy) propyl-β-cyclodextrin [HYPROB]”: the “Trans-Resveratrol … Gamay Rouge” value in data set [1] was 990 mg/L. In data set [2], the “Trans-Resveratrol … Monastrell albino” value was found to be 4110 mg/L. Also, the “Trans-Resveratrol … Monastrell green” value in data set [3] turned out to be 90 mg/L.
In the case of “sulphated β-cyclodextrin sodium salt [SULFOB]”, the “Trans-Resveratrol … Gamay Rouge” value in data set [1] was 0 mg/L. For the same molecule, the “Trans-Resveratrol … Monastrell albino” value in data set [2] came to 0 mg/L. Also, the “Trans-Resveratrol … Monastrell green” value in data set [3] turned out to be 0 mg/L. In data set [4] (50 mmol/liter in culture medium), the “Toxicity to grapevine cells in suspension” value was “toxic and kill the cells”.
On to `OC[C@H]1O[C@@H]2O[C@H]3[C@H](O)[C@@H](O)[C@@H](O[C@H]4[C@H](O)[C@@H](O)[C@@H](O[C@H]5[C@H](O)[C@@H](O)[C@@H](O[C@H]6[C@H](O)[C@@H](O)[C@@H](O[C@H]7[C@H](O)[C@@H](O)[C@@H](O[C@H]8[C@H](O)[C@@H](O)[C@@H](O[C@H]1[C@H](O)[C@H]2O)O[C@@H]8CO)O[C@@H]7CO)O[C@@H]6CO)O[C@@H]5CO)O[C@@H]4CO)O[C@@H]3CO` [BETA, β-cyclodextrin], for which the “Trans-Resveratrol … Gamay Rouge” value in data set [1] was determined as 30 mg/L. The “Trans-Resveratrol … Monastrell albino” value in data set [2] was 60 mg/L. The “Trans-Resveratrol … Monastrell green” value in data set [3] was 0 mg/L.
For the molecule “Randomly methylated β-cyclodextrin [CAVASOL ® W7 M]”, the “Trans-Resveratrol … Gamay Rouge” value in data set [1] is 3280 mg/L. In data set [2], the “Trans-Resveratrol … Monastrell albino” value worked out at 4963 mg/L. In addition, the “Trans-Resveratrol … Monastrell green” value in data set [3] was found to be 92 mg/L. Besides, the “Capacity to induce the synthesis of t-resveratrol compared with the other cyclodextrins tested” value in data set [4] is “greater capacity to induce the synthesis of t-resveratrol”.
Take `OC[C@H]1O[C@H](O[C@H]2[C@H](O)[C@@H](O)[C@@H](OC[C@H]3O[C@@H]4O[C@H]5[C@H](O)[C@@H](O)[C@@H](O[C@H]6[C@H](O)[C@@H](O)[C@@H](O[C@H]7[C@H](O)[C@@H](O)C(O[C@H]8[C@H](O)[C@@H](O)[C@@H](O[C@H]9[C@H](O)[C@@H](O)[C@@H](O[C@H]%10[C@H](O)[C@@H](O)[C@@H](O[C@H]3[C@H](O)[C@H]4O)O[C@@H]%10CO)O[C@@H]9CO)O[C@@H]8CO)O[C@@H]7CO)O[C@@H]6CO)O[C@@H]5CO)O[C@@H]2CO)[C@H](O)[C@@H](O)[C@@H]1O` [MALTOSYL, Maltosyl-β-cyclodextrin]: in data set [1], the “Trans-Resveratrol … Gamay Rouge” value is 390 mg/L. In data set [2], the “Trans-Resveratrol … Monastrell albino” value came out at 660 mg/L. In data set [3], the “Trans-Resveratrol … Monastrell green” value amounted to 20 mg/L.
On to `Oc1ccc(/C=C/c2cc(O)cc(O)c2)cc1` [t-resveratrol, trans-3,5,4′-trihydroxystilbene], for which the Solubility of t-resveratrol in data set [6] (Culture medium supplemented with 6.55 mg/ml of CAVASOL ® W7 M) is reported as 767 mg t-resveratrol/liter filtrated; in data set [6] (Culture medium supplemented with 6.55 mg/ml of DIMEB) it was 735 mg t-resveratrol/liter filtrated; in data set [6] (Culture medium supplemented with 6.55 mg/ml of RAMEB), 786 mg t-resveratrol/liter filtrated; in data set [6] (Culture medium), 48.8 mg t-resveratrol/liter filtrated; in data set [6] (Ultrapure water) it was 36.5 mg t-resveratrol/liter filtrated. In data set [7], the “Inhibition of crypt formation in aberrant colon” value is on record as “significant inhibition of crypt formation”.

The values above are taken from patent US7309591B2, “Method for the production of resveratrol in cell cultures” (Universidad de Alicante, priority 2002, dated 2007).
